Test results published in US20050180982A1, “Cadherin-11 expression, an assay and treatment for cellular invasiveness” (THE UNIVERSITY OF BRITISH COLUMBIA, priority 1998, published 2005).

Legend:
cad-11 = assay: Cad-11 antisense/sense oligonucleotide studies, second oligonucleotide pair; type: cell-based, human; details: no individual experiments specified
Method: Antisense oligonucleotide sequences (18 mers, 50% AT/GC) were selected from the full-length cad-11 cDNA sequence using the MacVector™ program. DNA sequences located near the 5′ end of the cad-11 cDNA were selected and compared to the human sequence databases of GenBank and EMBL bank. […] Sense oligonucleotides, OB-3 and OB-4, were prepared as controls. Phosphothiorate labelled oligonucleotides were prepared at the Biotechnology Lab. of The University of British Columbia. The same results were obtained using OB-1 and OB-3, as with OB-2 and OB-4.

[1] = test system: cad-11 protein in endometrial stromal cells; assay: Western blot of cad-11 protein in cultured endometrial stromal cells treated with gonadal steroids; type: cell-based, human
Method: (§1) Endometrial tissue biopsies (n=6) were obtained from women of reproductive age during the mid-secretory phase of the menstrual cycle. All patients had normal menstrual cycles and had not received hormones for at least three months prior to the collection of tissue. The stage of the menstrual cycle was determined by the last menstrual period and confirmed by histological evaluation.
The endometrial stromal cells were separated from the glandular epithelium by enzymatic digestion and mechanical dissociation. The endometrial biopsy specimens were minced and subjected to 0.1% colagenase (type 1A. Sigma Chemical Co., St. Louis. MO) and 0.1% hyaluronidase (type I-S, Sigma Chemical Co.) digestion in a shaking water bath at 37° C. for 1 hour. The cell digest was then passed through a nylon sieve (38 m). The isolated glands were retained on the sieve and the eluate containing the stromal cells collected in a 50 ml tube. […] The purity of the cell cultures was determined by immunocytochemical staining for vimentin, cytokeratin, muscle actin, and […]. […]
(§2) The results are presented as the mean relative absorbance (+SE) for three independent experiments. Statistical differences between time points and treatments were assessed by the analysis of variance (ANOVA). […] Significant differences between the means were determined using the least significant test.

[2] = test system: cad-11 mRNA in endometrial stromal cells; assay: Northern blot of cad-11 mRNA in cultured endometrial stromal cells treated with gonadal steroids; type: cell-based, human; details: P4 1 mM, E2 30 nM
Method: as §1
The endometrial stromal cells were separated from the glandular epithelium by enzymatic digestion and mechanical dissociation. […] The purity of the cell cultures was determined by immunocytochemical staining for vimentin, cytokeratin, muscle actin, and […]. […]
The Northern blots were hybridized with radiolabelled cDNA probes specific for human cad-11 according to the methods of MacCalman et al. (1992) Developmental Dynamics 195:127-132. […] The absorbance values obtained for cad-11 mRNA transcripts were normalized relative to the 18S rRNA absorbance value.
as §2

[3] = test system: Cos-1 cells transfected with the steroid acute regulatory protein; assay: Non-specific effects on cell number and steroidogenic capacity in Cos-1 cells; type: cell-based; design: cell number (Coulter cell counter): dose or concentration left out as unconfirmed
Method: Non-specific effects of the antisense oligonucleotides on cell viability and the steroidogenic capacity of cells was determined using Cos-1 cells transfected with the steroid acute regulatory protein (from Dr. J. F. Strauss, III. University of Pennsylvania, Philadelphia, Pa.). […] The COS-1 cells were cultured in the presence or absence of varying concentrations of OB-1 OR OB-3 (0.5-5 M) for 48 hours. The cell number present in each culture was determined using a Coulter™ cell counter and P4 concentrations present in the culture medium using a Progesterone RIA™ kit. As determined by these parameters.

human decidual cells = assay: Effect on primary cultures of human decidual cells; details: 0.5-5 M for 24 hours
[4] = test system: Villous cytotrophoblasts isolated from the human term placenta, cultured 72 hours
[5] = test system: cad-11 RNA transcript in human granulosa cells; assay: Specificity of antisense in granulosa cells, Northern blot, cad-11 probe; type: cell-based; design: dose or concentration left out as unconfirmed; details: 24 hours, dose-dependent manner for OB-1
Method: (§3) In order to determine the specificity of OB-1, the effect of OB-1 was determined in human granulosa cells. Human granulosa cells express three cadherin subtypes (cad-11, cad-6 and N-cad) as they undergo spontaneous luteinization in culture. Granulosa cells which had been cultured for 36 hours were treated with OB-1 or OB-3 (0.5-5 M). The cultures were maintained for a further 24 hours, after which the cells were harvested for Northern analysis. Northern blots were probed with cad-11, cad-6, or N-cadherin (neural cadherin) cDNA probes as previously described. OB-1 caused a reduction in the levels of the cad-11 RNA transcript in a dose-dependent manner but had no effect on cad-6 or N-cadherin mRNA levels. In contrast.

[6] = test system: cad-6 mRNA in human granulosa cells; assay: Specificity of antisense in granulosa cells, Northern blot, cad-6 probe; type: cell-based; details: 0.5-5 M, 24 hours
Method: as §3

[7] = test system: N-cadherin mRNA in human granulosa cells; assay: Specificity of antisense in granulosa cells, Northern blot, N-cadherin probe; type: cell-based; details: 0.5-5 M, 24 hours
Method: as §3

villous cytotrophoblasts = assay: Reversibility of oligonucleotide effects on villous cytotrophoblasts; type: cell-based, human; details: 48 hours with oligonucleotide, washed, further 24 hours
Method: To determine whether the effects of OB-1 on villous cytotrophoblasts are reversible, cells were cultured in the presence of OB-1 or OB-3 for 48 hours. The cells were washed thoroughly with PBS. The culture medium was then replaced and the cells cultured for a further 24 hours. […] The majority of cells (90%) detached from the culture and dish. Cad-11 was not detected in the remaining cells.

[8] = test system: cytotrophoblasts isolated from term placenta; assay: Morphology of cytotrophoblasts by light microscopy and indirect immunofluorescence; type: cell-based, human; details: indirect immunofluorescence for E-cadherin
Text: The effect of OB-1 and OB-3 on the morphology of the cytotrophoblast was examined by light microscopy and indirect immunofluoresence.

[9] = test system: PC3 cells treated with TGF-1; assay: Effect of oligonucleotides on PC3 cells treated with TGF-1; details: 0.5-5 M for 24 hours

Compound: OB-4: sense oligonucleotide prepared as control: ACC TTG GTC AAG AAG CAC (SEQ ID NO:4) (sense ACCTTGGTCAAGAAGCAC; listed as DNA, chemistry not given here) [reference compound]
- results compared with the pair OB-1 (antisense) and OB-3 (sense) (cad-11): same results

Compound: OB-2: cad-11 antisense oligonucleotide, 18 mer: CAC GAA GAA CTG GTT CCA (SEQ ID NO:2) (antisense CACGAAGAACTGGTTCCA; listed as DNA, chemistry not given here; listed as Homo sapiens)
- results compared with the pair OB-1 (antisense) and OB-3 (sense) (cad-11): same results

Compound: CC(=O)[C@H]1CC[C@H]2[C@@H]3CCC4=CC(=O)CC[C@]4(C)[C@H]3CC[C@]12C [P4, progesterone]
- time in culture at which maximum cad-11 expression levels were detected [1]: 12 days
- cad-11 protein expression ([1]; P4, E2 30 nM, alone or together, increase seen at 2 days of culture): increase
- time in culture at which maximum cad-11 mRNA levels were observed [2]: 12 days
- stromal cad-11 mRNA levels ([2]; alone or together, increase seen after 2 days of culture, studied 0-12 days): significant increase

Compound: OB-3: sense oligonucleotide prepared as control: ATG ACA AAT GTT CGG CGG (SEQ ID NO:3) (sense ATGACAAATGTTCGGCGG; chemistry not given here) [reference compound]
- steroidogenic capacity (P4 concentrations in culture medium, RIA) ([3]; 0.5-5 M for 48 hours): did not have a significant effect
- cell number (Coulter cell counter) ([3]; for 48 hours): did not have a significant effect
- cell viability and number (human decidual cells): did not have a significant effect
- viability of syncytial structures (trypan blue) [4]: viable
- structures observed (phase contrast microscopy) ([4]; oligonucleotide added after 72 hours of culture, OB-1 for 24 hours): Large syncytial structures
- levels of the cad-11 RNA transcript [5]: did not effect
- cad-6 mRNA levels [6]: did not effect
- N-cadherin mRNA levels [7]: did not effect
- structures observed after wash-out (villous cytotrophoblasts): large syncytial structures
- composition of cellular structures formed (fusion) [8]: multinucleated syncytial structures
- cell viability and number [9]: did not have a significant effect
